From US20240216401A1, “COMBINATION THERAPY BY USING AKR1C3-ACTIVATED COMPOUND WITH IMMUNE CHECKPOINT INHIBITOR” (OBI Pharma, Inc., priority 2021, published 2024)
“And” between values parts separate entries of the source, which are not always exact repeats. Identical values can stand only once.

Columns and labels:
Assay type in all cases: in vivo, Mus musculus
HepG2 tumor = experiment: Example 1: tumor volume, tumor weight and TGI in HepG2 tumor bearing humanized mice
Method: (§1) Each group contains five mice. The human hepatocellular carcinoma cell line HepG2 were subcutaneously inoculated to the advanced immune deficiency mice. Total of 30 mice were included in this study.
2.2. […] The subcutaneous injection volume was […].
(§2) 3.1. […] The injection was performed using insulin syringe with the dosage of 10 mg/kg (Dosage of injection was changed to 20 mg/kg from Day 15) and injection volume of 10 mL/kg. […] The reference item was administered for G1. The procedure followed the standards of sample administration.
(§3) 3.2. The test item anti-hPD-L1 antibody or reference items were intraperitoneally injected to the mice on Day 8 after the inoculation of tumor cells. The injection was performed using insulin syringe with the dosage of 10 mg/kg (Dosage of injection was changed to 20 mg/kg from Day 15) and injection volume of 10 mL/kg. The test item anti-hPD-L1 was continuously administered on Day 8, 11, 15, 18, 22, 25, 29 and 32 for G4 and G6. The reference item was administered for G1. The procedure followed the standards of sample administration.
(§4) 3.3. […] The injection was performed using insulin syringe with the dosage of 1 mg/kg and injection volume of 5 mL/kg. […] The reference item was administered for G1. The procedure followed the standards of sample administration.
The measurement was performed from the next day of the inoculation. The tumor volumes were measured and recorded twice a week (Mon., Thur.). Tumor volume was calculated by ellipsoid equation according to the records ((major axis×minor axis×minor axis)×(π/6)).
Tumor volumes were used to calculate tumor growth inhibition (TGI) rates according to the following formula: TGI (%)=[1−(Ti−T0)/(Ci−C0)]×100, where Ti and Ci indicate the mean tumor volume in the treatment groups and vehicle group at the end of the experiment (Day 35). Whereas, T0 and C0 indicate the mean tumor volumes in the treatment group and vehicle group at the beginning of the experiment (Day 1).
(§5) Mice were sacrificed by CO2 euthanasia at the end of the study duration, and the connective tissue around tumor was resected. The tumor samples were then removed and weighed. The half tissue was fixed in 10% formaldehyde and then embedded in paraffin; the other half was prepared for the isolation of tumor-infiltrating lymphocytes (TILs).

[1] = Example 1: body weight and mortality of HepG2 tumor bearing humanized mice; conditions: for Body Weight, Mean: OBI-3424 1 mg/kg IV, antibody 10 mg/kg IP (20 from Day 15)
Method: as §1, §2, §3, §4
The measurement was performed from the next day of the inoculation. The animal body weights were measured and recorded twice per week.

[2] = test system: CD8^+ cytotoxic T cells (CTL) in tumor-infiltrating lymphocytes; experiment: Example 1: flow cytometry, percentage of CTL cells in TILs
Method: as §5
(§6) The half of mouse tumors were dissected into smaller fragments using scalpels and then digested with a cocktail of collagenase, DNase I, and Hyaluronidase (Collagenase #C5138, DNase I #D5025, Hyaluronidase #H6254, SigmaAldrich) for at least 2 hours.
(§7) Cells were stained with the fluorescently conjugated surface antibodies and incubated for 30 minutes at 4° C., and then resuspended in staining buffer for flow cytometric analysis. Flow cytometry was done using a Navios EX Flow Cytometer (Beckman Coulter). Data were analyzed using the Kaluza Analysis Software (Beckman Coulter).

[3] = test system: CD4^+ T helper cells in tumor-infiltrating lymphocytes; experiment: Example 1: flow cytometry, percentage of TH cells in TILs; conditions: individual mice
Method: as §5, §6, §7

[4] = test system: NK cells in tumor-infiltrating lymphocytes; experiment: Example 1: flow cytometry, percentage of NK cells in TILs; conditions: individual mice
Method: as §5, §6, §7

[5] = test system: PD-L1^+ cells in tumor-infiltrating lymphocytes; experiment: Example 1: flow cytometry, percentage of PD-L1 cells in TILs; conditions: individual animal
Method: as §5, §6, §7

[6] = TILs, flow cytometer, individual mice
[7] = TILs, gate CD45^+CD8^+ cells, individual mice

anti-hPD-L1: Anti-Human PD-L1 antibody, Avelumab
Tumor volume, Mean (HepG2 tumor; D 1, group mean, OBI-3424 1 mg/kg IV, antibody 10 mg/kg IP (20 from Day 15)): 409.71 mm^3
Tumor volume, Mean (HepG2 tumor; D 4, group mean, OBI-3424 1 mg/kg IV, antibody 10 mg/kg IP (20 from Day 15)): 316.07 mm^3
Tumor volume, Mean (HepG2 tumor; D 7, group mean, OBI-3424 1 mg/kg IV, antibody 10 mg/kg IP (20 from Day 15)): 304.50 mm^3
Tumor volume, Mean (HepG2 tumor; D 11, group mean, OBI-3424 1 mg/kg IV, antibody 10 mg/kg IP (20 from Day 15)): 342.83 mm^3
Tumor volume, Mean (HepG2 tumor; D 14, group mean, OBI-3424 1 mg/kg IV, antibody 10 mg/kg IP (20 from Day 15)): 371.47 mm^3
Tumor volume, Mean (HepG2 tumor; D 18, group mean, OBI-3424 1 mg/kg IV, antibody 10 mg/kg IP (20 from Day 15)): 491.18 mm^3
Tumor volume, Mean (HepG2 tumor; D 21, group mean, OBI-3424 1 mg/kg IV, antibody 10 mg/kg IP (20 from Day 15)): 675.33 mm^3
Tumor volume, Mean (HepG2 tumor; D 25, group mean, OBI-3424 1 mg/kg IV, antibody 10 mg/kg IP (20 from Day 15)): 812.95 mm^3
Tumor volume, Mean (HepG2 tumor; D 28, group mean, OBI-3424 1 mg/kg IV, antibody 10 mg/kg IP (20 from Day 15)): 866.97 mm^3
Tumor volume, Mean (HepG2 tumor; D 32, group mean, OBI-3424 1 mg/kg IV, antibody 10 mg/kg IP (20 from Day 15)): 1155.84 mm^3
Tumor volume, Mean (HepG2 tumor; D 35, group mean (mean±SEM), OBI-3424 1 mg/kg IV, antibody 10 mg/kg IP (20 from Day 15)): 1148.64±193.00 mm^3 and 1148.64 mm^3
Tumor weight, Mean (HepG2 tumor; D 35, group mean, OBI-3424 1 mg/kg IV, antibody 10 mg/kg IP (20 from Day 15)): *1010.73 mg
mean tumor volume compared with vehicle (in words) (HepG2 tumor; Day 35, vs vehicle (G1), Student's t-test): No statistically significant difference
effect on tumor growth (conclusion in words) (HepG2 tumor; HepG2 humanized mouse model): no effect on tumor growth
TGI (HepG2 tumor; from mean tumor volumes Day 35 vs Day 1, relative to vehicle, OBI-3424 1 mg/kg IV, antibody 10 mg/kg IP (20 from Day 15)): 35.60%
Body Weight, Mean ([1]; Day 0, group mean): 22.87 g
Body Weight, Mean ([1]; Day 1, group mean): 22.73 g
Body Weight, Mean ([1]; Day 4, group mean): 23.32 g
Body Weight, Mean ([1]; Day 7, group mean): 23.48 g
Body Weight, Mean ([1]; Day 11, group mean): 24.17 g
Body Weight, Mean ([1]; Day 14, group mean): 23.74 g
Body Weight, Mean ([1]; Day 18, group mean): 23.56 g
Body Weight, Mean ([1]; Day 21, group mean): 23.37 g
Body Weight, Mean ([1]; Day 25, group mean): 23.70 g
Body Weight, Mean ([1]; Day 28, group mean): 23.57 g
Body Weight, Mean ([1]; Day 32, group mean): 22.55 g
Body Weight, Mean ([1]; Day 35, group mean): 23.35 g
mortality ([1]; one mouse (MI052) of G4): found dead on Day 34
CD8^+ cytotoxic T cells (CTL) population in tumors compared with vehicle (in words) ([2]; Example 1, TILs at sacrifice, flow cytometry): not observed
CD25^+ CTL cells (CD45^+CD8^+ CD25^+) Total % [2, 6]: 0.27% and 0.30% and 0.21% and 0.63%
CTL cells (CD45^+CD8^+) Total % [2, 6]: 14.00% and 18.51% and 11.85% and 16.01%
PD-1^+ CTL cells (CD45^+CD8^+ PD-1^+) Total % [2, 6]: 17.16% and 16.84% and 12.16% and 16.68%
CTL cells (CD45^+CD8^+) CD45^+ Gated % ([2]; TILs, gate CD45^+ cells, individual mice): 57.51% and 57.17% and 56.56% and 70.33%
CD25^+ CTL cells (CD45^+CD8^+ CD25^+) CTL Gated % [2, 7]: 1.93% and 1.59% and 1.77% and 3.90%
PD-1^+ CTL cells (CD45^+CD8^+ PD-1^+) CTL Gated % [2, 7]: 97.44% and 88.98% and 94.63% and 98.61%
CD25^+ CTL cells (CD45^+CD8^+ CD25^+) Cell count ([2]; TILs, individual mice): 0.33 ×10^5 and 0.66 ×10^5 and 0.37 ×10^5 and 0.45 ×10^5
CTL cells (CD45^+CD8^+) Cell count ([2]; TILs, individual mice): 17.08 ×10^5 and 40.72 ×10^5 and 20.97 ×10^5 and 11.56 ×10^5
PD-1^+ CTL cells (CD45^+CD8^+ PD-1^+) Cell count ([2]; TILs, individual mice): 20.94 ×10^5 and 37.05 ×10^5 and 21.52 ×10^5 and 12.04 ×10^5
CD25^+ TH cells (CD45^+CD4^+ CD25^+) Total % ([3]; flow cytometer): 1.19% and 1.34% and 1.01% and 1.14%
PD-1^+ TH cells (CD45^+CD4^+ PD-1^+) Total % ([3]; flow cytometer): 10.85% and 11.67% and 6.66% and 15.38%
TH cells (CD45^+CD4^+) Total % ([3]; flow cytometer): 9.82% and 12.42% and 6.81% and 15.92%
TH cells (CD45^+CD4^+) CD45^+ Gated % ([3]; gate CD45^+ cells): 40.34% and 38.36% and 32.51% and 69.93%
CD25^+ TH cells (CD45^+CD4^+CD25^+) TH Gated % ([3]; gate CD45^+CD4^+ cells): 12.12% and 10.75% and 14.76% and 7.16%
PD-1^+ TH cells (CD45^+CD4^+ PD-1^+) TH Gated % ([3]; gate CD45^+CD4^+ cells): 99.40% (2×) and 99.02% and 99.19%
CD25^+ TH cells (CD45^+CD4^+ CD25^+) Cell count [3]: 1.45 ×10^5 and 2.95 ×10^5 and 1.79 ×10^5 and 0.82 ×10^5
PD-1^+ TH cells (CD45^+CD4^+ PD-1^+) Cell count [3]: 13.24 ×10^5 and 25.67 ×10^5 and 11.79 ×10^5 and 11.10 ×10^5
TH cells (CD45^+CD4^+) Cell count [3]: 11.98 ×10^5 and 27.32 ×10^5 and 12.05 ×10^5 and 11.49 ×10^5
CD16^+ NK cells (CD45^+CD56^+ CD16^+) Total % ([4]; flow cytometer): 0.44% and 0.80% and 0.62% and 0.48%
NK cells (CD45^+CD56^+) Total % ([4]; flow cytometer): 1.67% and 2.61% and 1.42% and 1.80%
PD-1^+ NK cells (CD45^+CD56^+PD-1^+) Total % ([4]; flow cytometer): 2.28% (2×) and 2.10% and 1.78%
NK cells (CD45^+CD56^+) CD45^+ Gated % ([4]; gate CD45^+ cells): 9.51% and 10.84% and 12.49% and 8.78%
CD16^+ NK cells (CD45^+CD56^+ CD16^+) NK Gated % ([4]; gate CD45^+CD56^+ cells): 26.13% and 30.65% and 43.46% and 26.39%
PD-1^+ NK cells (CD45^+CD56^+PD-1^+) NK Gated % ([4]; gate CD45^+CD56^+ cells): 99.56% and 97.23% and 88.77% and 91.52%
CD16^+ NK cells (CD45^+CD56^+ CD16^+) Cell count [4]: 0.54 ×10^5 and 1.76 ×10^5 and 1.10 ×10^5 and 0.35 ×10^5
NK cells (CD45^+CD56^+) Cell count [4]: 2.04 ×10^5 and 5.74 ×10^5 and 2.51 ×10^5 and 1.30 ×10^5
PD-1^+ NK cells (CD45^+CD56^+PD-1^+) Cell count [4]: 2.78 ×10^5 and 5.02 ×10^5 and 3.72 ×10^5 and 1.29 ×10^5
CD45^+ cells Cell count (×10^6) [5]: 2.97 ×10^6 and 7.12 ×10^6 and 3.71 ×10^6 and 1.64 ×10^6
CD45^+ cells Gated % [5]: 34.93% and 47.08% and 31.41% and 28.59%
CD45^+ cells Total % [5]: 24.35% and 32.38% and 20.95% and 22.77%
Total PD-L1^+ cells (PD-L1^+) Cell count (×10^5) [5]: 1.35 ×10^5 and 3.98 ×10^5 and 15.58 ×10^5 and 12.17 ×10^5
Total PD-L1^+ cells (PD-L1^+), Total % [5]: 1.11% and 1.81% and 8.80% and 16.86%
Total PD-L1^+ cells (PD-L1^+), Total cells Gated % [5]: 1.43% and 2.38% and 11.79% and 19.02%
Total cells Cell count (×10^6) [5]: 9.42 ×10^6 and 16.72 ×10^6 and 13.21 ×10^6 and 6.40 ×10^6
Total cells Gated % [5]: 77.18% and 75.98% and 74.62% and 88.63%
Total cells Total % [5]: 77.18% and 75.98% and 74.62% and 88.63%
